Results from US20220389109A1, “Management of conditions other than multiple sclerosis in ofatumumab-treated patients” (Novartis AG, priority 2019, published 2022).
Like-named read-outs stand apart in the source and are kept apart here.

Assays:
[1] = test system: total immunoglobulins; conditions: over the controlled period of the studies, mainly driven by reduction in IgM; cited from earlier work
[2] = test system: serum immunoglobulin (IgG); conditions: cited from earlier work
[3] = test system: IgG, B-cell subtypes, adverse events; conditions: human, in vivo
Method: MS patients are treated with either ofatumumab or Ocrevus (ocrelizumab). Selected patients having psoriatic arthritis are monitored under a special study program. […] Some of them cannot take a disease-modifying antirheumatic drugs (DMARD) such as • Leflunomide (Arava), • Methotrexate (Otrexup, Rasuvo, Rheumatrex, Trexall) or • Sulfasalazine (Azulfidine).
Thus, they are treated with an immunosuppressant, i.e. one of • Azathioprine (Imuran, Azasan) or • Cyclosporine (Gengraf, Neoral, Sandimmune).

[4] = test system: MS patients; conditions: cited from earlier work; for reduction in annualized relapse rate compared to teriflunomide: p<0.001
[5] = test system: total B cells (CD19+ CD45+), CD20+ CD3+ T cells; assay: APLIOS Phase 2 study: B and T-cell subsets in blood by FACS; format: in vivo, human; conditions: 20 mg s.c.
Method: APLIOS was a 12-week, open-label, Phase 2 bioequivalence study. Patients received ofatumumab 20 mg (0.4 mL) s.c. loading doses on Days 1, 7 and 14, and maintenance doses every 4 weeks from Week 4 via a prefilled syringe or an autoinjector pen (SensoReady). Changes in B and T-cell subsets were analysed longitudinally in blood samples of a group of patients using fluorescence-activated cell sorting (FACS).

[6] = design: species or system human; conditions: in vivo
Method: (§1) ASCLEPIOS I and II are double-blind, double-dummy, active comparator-controlled, parallel-group, innovative, adaptive design, multicentre trials. Patients were randomised (1:1) to receive either ofatumumab 20 mg sc injections every 4 weeks (after an initial loading regimen of 20 mg sc doses on Days 1, 7 and 14) or teriflunomide 14 mg orally once daily, for up to 30 months. The studies have flexible durations, with termination occurring in the blinded core treatment epoch according to pre-specified criteria. Patients aged 18-55 years with an Expanded Disability Status Scale (EDSS) score (according to Kurtzke, Neurology. 1983, November; 33(11): 1444-52) of 0-5.5 at screening who experienced ≥1 relapse in the past year or ≥2 relapses in the past 2 years or a positive gadolinium-enhancing (Gd+) MRI scan during the year before randomisation were included.
(§2) Serum IgG/IgM levels were monitored at baseline, Week (W) 4, W12 and every 12 weeks, see FIG. 1. […] Reference is made to FIG. 1.

[7] = test system: urinary tract infections, B-cell subtypes; conditions: human, in vivo
Source text: A first group of patients is monitored after an ischemic stroke. A sub-group of the patients are expected to have difficulty with urinary leakage or are not able to empty their bladder completely because of muscle weakness. For these reasons, a catheter will be placed inside the bladder. However, there is an increased risk of urinary tract infections related to the use of a catheter. These infections will be treated with one of • Trimethoprim/sulfamethoxazole (Bactrim, Septra, others), • Fosfomycin (Monurol), • Nitrofurantoin (Macrodantin, Macrobid), • Cephalexin (Keflex) or • Ceftriaxone.
A second group of patients consists of ofatumumab-treated MS patients. A sub-group of the patients develops adverse events, including urinary tract infections. These infections are treated with one of • Trimethoprim/sulfamethoxazole (Bactrim, Septra, others), • Fosfomycin (Monurol), • Nitrofurantoin (Macrodantin, Macrobid), • Cephalexin (Keflex) or • Ceftriaxone.

[8] = test system: Immunoglobulin G, Plasma/Serum; design: species or system human; conditions: in vivo
Method: as §1, §2
• At each visit-window, only patients with a value at both Baseline and that visit-window are included.

[9] = test system: (total) IgG, B-cell subtypes; conditions: human, in vivo
Method: Ofatumumab is administered s.c. to RRMS patients. If injection-related reactions occurs, symptomatic treatment is provided. For patients who experienced pain, redness or itching, hydrocortisone cream is applied after the injection to help with itching, redness and swelling. A pain reliever is also be used.

[10] = test system: IgM; conditions: in vivo; cited from earlier work

For ocrelizumab, the “change in total immunoglobulins” value [1] is listed as “decrease in total immunoglobulins”, the “reduction of IgG levels” value ([2]; after two years (96 weeks), pooled OPERA) is listed as “approx. 5%” and the “reduction in serum Ig levels, approximate mean rate” value ([2]; assessed over 5.5 years) is listed as 3-4 % per year. The “adverse events (e.g. infections) after treatment with the immunosuppressant” value [3] was “significantly more adverse events”.

In the case of ofatumumab, the “reduction in annualized relapse rate compared to teriflunomide” value ([4]; ASCLEPIOS I) is listed as 50.5%, the “reduction in annualized relapse rate compared to teriflunomide” value ([4]; ASCLEPIOS II) is listed as 58.5% and the “suppression of gadolinium (Gd) T1 lesions compared to Aubagio” value ([4]; in vivo) is listed as “highly significant suppression”. For the same substance, the “relative risk reduction in 6-month CDP versus Aubagio” value ([4]; pre-specified pooled analyses, p=0.012) was 32.5%, the “depletion of CD20+ CD3+ T cells” value [5] was “rapidly and potently depleted” and the “depletion of memory B cells (CD19+ CD45+ CD27+) compared with naïve B cells” value [5] was “more efficient depletion”. The “median total B-cell levels” value ([5]; by Day 7 through Day 14 of the loading regimen, maintained for remaining study duration) was ≤ 5 cells/μL, the “depletion in total B cells (CD19+ CD45+)” value ([5]; measured on Day 4 and Day 7) was “rapid and sustained depletion” and the incidence of infections [6] was “Advantageous low incidence”. For the same substance, the “follicular B-cell subtype” value [7] was “marked decrease”, the “management of urinary tract infections” value [7] was “No significant difference” and the “marginal zone and germinal center B-cell subtypes” value [7] was “less affected”. For the same substance, the “IgG decrease as compared with teriflunomide-treated patients” value [8] was “less pronounced and shorter”, the “turning point at which the trend of decreasing IgG levels reverses” value [8] was 36 week and the “follicular B-cell subtype” value [3] was “marked decrease”. The “level of IgG versus Ocrevus-treated patients” value [3] was “significantly higher”, the “marginal zone and germinal center B-cell subtypes” value [3] was “less affected” and the “combined immunosuppression or toxicity of ofatumumab and hydrocortisone” value [9] was “no evidence”. For the same substance, the “follicular B-cell subtype” value [9] was “marked decrease”, the “marginal zone and germinal center B-cell subtypes” value [9] was “less affected” and the “level of (total) IgG in patients with injection-related reactions versus without reactions and hydrocortisone” value ([9]; sc) was “comparable”.

In the case of rituximab, the “effect on IgM levels” value [10] is listed as “depression of IgM levels”.
